Measurements: ChEMBL document CHEMBL2417440, “Experimental and structural testing module to analyze paralogue-specificity and affinity in the Hsp90 inhibitors series” (J Med Chem, 2013)
Activity calls are given as the source filed them. The rule behind the calls is not given here.

Columns and labels:
[1] = target: T1, Heat shock protein HSP 90-beta (Homo sapiens, UniProt P08238); test: Binding affinity to recombinant HSP90beta (unknown origin) by fluorescence polarization assay; details: read-out: Kd(app)
T1 sequence (P08238 whole entry): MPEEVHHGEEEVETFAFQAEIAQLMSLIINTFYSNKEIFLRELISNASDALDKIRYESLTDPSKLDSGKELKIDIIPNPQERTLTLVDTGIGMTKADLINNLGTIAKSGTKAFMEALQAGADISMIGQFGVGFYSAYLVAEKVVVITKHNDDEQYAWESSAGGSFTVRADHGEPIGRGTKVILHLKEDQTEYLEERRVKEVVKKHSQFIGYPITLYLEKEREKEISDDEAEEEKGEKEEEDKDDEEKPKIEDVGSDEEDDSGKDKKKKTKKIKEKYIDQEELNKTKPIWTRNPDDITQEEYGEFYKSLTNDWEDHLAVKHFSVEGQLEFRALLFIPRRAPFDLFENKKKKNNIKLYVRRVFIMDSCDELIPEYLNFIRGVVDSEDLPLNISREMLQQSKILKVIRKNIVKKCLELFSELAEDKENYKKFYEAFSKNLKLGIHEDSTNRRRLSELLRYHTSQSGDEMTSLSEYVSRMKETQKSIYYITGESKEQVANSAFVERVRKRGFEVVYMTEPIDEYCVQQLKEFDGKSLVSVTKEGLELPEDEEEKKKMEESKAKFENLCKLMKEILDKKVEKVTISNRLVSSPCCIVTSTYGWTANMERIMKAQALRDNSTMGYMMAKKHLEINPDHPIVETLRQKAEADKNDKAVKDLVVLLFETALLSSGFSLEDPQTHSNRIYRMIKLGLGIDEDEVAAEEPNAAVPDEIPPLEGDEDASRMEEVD

[2] = target: T2, Heat shock protein HSP90 (Homo sapiens) (UniProt P07900+P08238); test: Binding affinity to HSP90 in human SKBR3 cell lysates at 3 nM up to 24 hrs by fluorescence polarization assay; format: protein assay; details: SK-BR-3
[3] = target: T3, Heat shock protein HSP 90-alpha (Homo sapiens, UniProt P07900); test: Binding affinity to HSP90alpha (unknown origin) by fluorescence polarization assay; details: read-out: Kd(app)
Endoplasmin [4] = target: T4, Endoplasmin (Canis lupus familiaris, UniProt P41148); test: Binding affinity to dog Grp94 by fluorescence polarization assay; details: read-out: Kd(app)
T4 sequence (P41148 whole entry): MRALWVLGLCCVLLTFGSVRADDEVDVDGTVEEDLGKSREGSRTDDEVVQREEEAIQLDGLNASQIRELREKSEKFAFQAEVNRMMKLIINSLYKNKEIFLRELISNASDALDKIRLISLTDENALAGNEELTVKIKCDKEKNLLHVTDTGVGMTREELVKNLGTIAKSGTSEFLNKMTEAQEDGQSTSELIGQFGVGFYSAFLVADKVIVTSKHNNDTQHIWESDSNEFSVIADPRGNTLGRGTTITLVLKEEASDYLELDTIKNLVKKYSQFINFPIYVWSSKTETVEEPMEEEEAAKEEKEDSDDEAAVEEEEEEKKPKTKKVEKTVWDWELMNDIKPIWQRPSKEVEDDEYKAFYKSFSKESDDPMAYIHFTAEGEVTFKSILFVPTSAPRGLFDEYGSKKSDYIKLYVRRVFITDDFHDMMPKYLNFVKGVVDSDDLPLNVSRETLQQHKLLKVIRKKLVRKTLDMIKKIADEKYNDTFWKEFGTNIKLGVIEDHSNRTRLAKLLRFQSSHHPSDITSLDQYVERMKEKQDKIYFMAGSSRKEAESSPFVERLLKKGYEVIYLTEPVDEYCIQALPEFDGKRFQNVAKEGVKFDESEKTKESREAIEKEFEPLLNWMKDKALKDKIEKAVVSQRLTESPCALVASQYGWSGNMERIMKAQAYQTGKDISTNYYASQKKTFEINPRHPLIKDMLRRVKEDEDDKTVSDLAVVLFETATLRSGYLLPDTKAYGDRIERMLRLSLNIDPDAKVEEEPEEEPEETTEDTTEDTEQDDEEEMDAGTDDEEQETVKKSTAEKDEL

[5] = target: T5, Heat shock protein 75 kDa, mitochondrial (Homo sapiens, UniProt Q12931)
T5 sequence (Q12931 whole entry): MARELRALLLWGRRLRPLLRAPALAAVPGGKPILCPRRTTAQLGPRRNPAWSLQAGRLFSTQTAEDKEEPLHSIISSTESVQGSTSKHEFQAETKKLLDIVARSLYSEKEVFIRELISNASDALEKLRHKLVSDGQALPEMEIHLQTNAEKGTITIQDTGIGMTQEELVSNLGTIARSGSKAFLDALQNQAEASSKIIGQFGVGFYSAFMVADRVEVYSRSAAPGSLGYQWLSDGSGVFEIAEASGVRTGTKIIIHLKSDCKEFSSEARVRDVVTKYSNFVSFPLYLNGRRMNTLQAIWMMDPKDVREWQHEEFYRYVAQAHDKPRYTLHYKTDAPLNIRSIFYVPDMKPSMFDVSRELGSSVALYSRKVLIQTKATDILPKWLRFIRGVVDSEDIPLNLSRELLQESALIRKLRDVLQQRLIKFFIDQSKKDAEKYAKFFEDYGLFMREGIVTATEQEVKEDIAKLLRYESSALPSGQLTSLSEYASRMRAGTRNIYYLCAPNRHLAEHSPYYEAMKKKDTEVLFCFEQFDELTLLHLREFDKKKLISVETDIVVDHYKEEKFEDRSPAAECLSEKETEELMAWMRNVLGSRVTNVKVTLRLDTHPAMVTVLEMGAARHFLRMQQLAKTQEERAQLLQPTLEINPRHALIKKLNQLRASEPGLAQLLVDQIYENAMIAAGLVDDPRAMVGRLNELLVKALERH
Description: Binding affinity to recombinant human Trap-1 by fluorescence polarization assay

[6] = target: T2, Heat shock protein HSP90 (Homo sapiens); test: Binding affinity to HSP90 in human SKBR3 cell lysates at 3 nM after 8 hrs by fluorescence polarization assay; format: protein assay; details: SK-BR-3
[7] = target: T3, Heat shock protein HSP 90-alpha; test: Binding affinity to HSP90alpha (unknown origin)
Endoplasmin [8] = target: T4, Endoplasmin
[9] = target: T2, Heat shock protein HSP90 (Homo sapiens); test: Binding affinity to HSP90 (unknown origin); format: protein assay
[10] = target: T5, Heat shock protein 75 kDa, mitochondrial; remark: listed apart in the source
[11] = target: T1, Heat shock protein HSP 90-beta
[12] = target: T3, Heat shock protein HSP 90-alpha
[13] = target: Endoplasmin (Homo sapiens) (UniProt P14625); test: Binding affinity to GRP94 (unknown origin)
Chain of Endoplasmin (Homo sapiens) (P14625 whole entry): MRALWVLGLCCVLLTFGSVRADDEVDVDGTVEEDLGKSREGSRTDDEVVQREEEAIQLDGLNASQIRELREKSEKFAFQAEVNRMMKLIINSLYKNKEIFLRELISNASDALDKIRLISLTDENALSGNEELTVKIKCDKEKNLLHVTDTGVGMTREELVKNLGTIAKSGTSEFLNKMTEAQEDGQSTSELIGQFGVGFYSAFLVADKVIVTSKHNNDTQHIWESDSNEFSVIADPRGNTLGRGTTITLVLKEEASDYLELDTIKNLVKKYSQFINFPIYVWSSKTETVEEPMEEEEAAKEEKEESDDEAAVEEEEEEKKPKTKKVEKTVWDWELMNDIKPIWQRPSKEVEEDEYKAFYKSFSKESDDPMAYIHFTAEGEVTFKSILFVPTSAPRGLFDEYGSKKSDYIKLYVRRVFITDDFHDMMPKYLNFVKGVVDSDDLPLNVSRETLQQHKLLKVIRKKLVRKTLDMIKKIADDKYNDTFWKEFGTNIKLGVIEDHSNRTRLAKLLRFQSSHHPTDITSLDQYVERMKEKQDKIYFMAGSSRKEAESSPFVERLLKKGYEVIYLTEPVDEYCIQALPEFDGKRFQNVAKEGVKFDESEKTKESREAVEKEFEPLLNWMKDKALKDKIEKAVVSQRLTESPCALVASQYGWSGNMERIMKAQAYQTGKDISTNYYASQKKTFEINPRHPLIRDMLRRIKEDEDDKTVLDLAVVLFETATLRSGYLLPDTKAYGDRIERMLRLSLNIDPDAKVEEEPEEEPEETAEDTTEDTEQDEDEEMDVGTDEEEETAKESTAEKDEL

[14] = target: T1, Heat shock protein HSP 90-beta; test: Binding affinity to HSP90beta (unknown origin)
[15] = target: T6, Heat shock protein 75 kDa, mitochondrial (Homo sapiens) (UniProt Q12931); test: Binding affinity to TRAP1 (unknown origin)
T6 sequence (whole entry): T5 sequence (Q12931 whole entry)

Homo sapiens = species: Homo sapiens; test: Ratio of binding affinity to HASP90 (unknown origin) to TRAP1 (unknown origin)

CC(C)N(CCCn1c(Sc2cc3c(cc2I)OCO3)nc2c(N)ncnc21)C(=S)Nc1ccc(-c2c3ccc(=O)cc-3oc3cc(O)ccc23)c(C(=O)O)c1
Kd [1]: 2.8 nM | Activity [2]: Active | Kd [3]: 3.9 nM | Kd (Endoplasmin [4]): 30.7 nM | Kd [5]: 5.8 nM

CO[C@H]1/C=C\C=C(/C)C(=O)NC2=CC(=O)C(NCCCCNC(=O)Cc3ccc4c(c3)C(C)(C)C3=[N+]4CCC4OC5CCN6C(=C5C=C34)C(C)(C)c3cc(S(=O)(=O)[O-])ccc36)=C(C[C@@H](C)C[C@H](OC)[C@H](O)[C@@H](C)/C=C(\C)[C@@H]1OC(N)=O)C2=O (stereo partly specified)
Kd [1]: 2.2 nM | Kd [3]: 0.7 nM | Kd (Endoplasmin [4]): 2.5 nM | Kd [5]: 51.8 nM

Nc1ncnc2c1nc(Sc1cc3c(cc1I)OCO3)n2CCCNC(=S)Nc1ccc(-c2c3ccc(=O)cc-3oc3cc(O)ccc23)c(C(=O)O)c1
Activity [6]: Active | Kd [1]: 1.6 nM | Activity [2]: Active | Kd [3]: 1.4 nM | Kd (Endoplasmin [4]): 6.6 nM

Nc1ncnc2c1nc(Sc1cc3c(cc1I)OCO3)n2CCCCCCCCNC(=S)Nc1ccc(-c2c3ccc(=O)cc-3oc3cc(O)ccc23)c(C(=O)O)c1
Activity [2]: inactive

Nc1ncnc2c1nc(Sc1cc3c(cc1I)OCO3)n2CCCCCCNC(=S)Nc1ccc(-c2c3ccc(=O)cc-3oc3cc(O)ccc23)c(C(=O)O)c1
Activity [2]: Active

Nc1ncnc2c1nc(Sc1cc3c(cc1I)OCO3)n2CCCCNC(=S)Nc1ccc(-c2c3ccc(=O)cc-3oc3cc(O)ccc23)c(C(=O)O)c1
Activity [2]: Active

Nc1ncnc2c1ncn2[C@@H]1O[C@H](COP(=O)(O)OP(=O)(O)O)[C@@H](O)[C@H]1O [ADENOSINE DIPHOSPHATE]
Activity [7]: 51 µM | IC50 (Endoplasmin [8]): 11400 nM | Activity [9]: 41 µM | IC50 [10]: 55600 nM | IC50 [11]: 42200 nM | IC50 [12]: 59300 nM | Activity [13]: 2.3 µM | Activity [14]: 34 µM

Nc1ncnc2c1ncn2[C@@H]1O[C@H](COP(=O)(O)OP(=O)(O)OP(=O)(O)O)[C@@H](O)[C@H]1O [ADENOSINE TRIPHOSPHATE]
IC50 (Endoplasmin [8]): 3240 nM | Activity [9]: 840 µM | IC50 [10]: 31300 nM | IC50 [11]: 894000 nM | IC50 [12]: 861000 nM | Activity [13]: 3.4 µM | Activity [15]: 31.3 µM | Ratio (Homo sapiens): 10

CC(C)c1cc(-c2n[nH]c(=O)n2-c2ccc3c(ccn3C)c2)c(O)cc1O [GANETESPIB]
IC50 (Endoplasmin [8]): 10 nM

C=CCNC1=C2C[C@@H](C)C[C@H](OC)[C@H](O)[C@@H](C)/C=C(\C)[C@H](OC(N)=O)[C@@H](OC)/C=C\C=C(/C)C(=O)NC(=CC1=O)C2=O [TANESPIMYCIN]
IC50 (Endoplasmin [8]): 31 nM | IC50 [10]: 1500 nM
